Measured values from article PMC3341351, “Down-Regulation of GABAA Receptor via Promiscuity with the Vasoactive Peptide Urotensin II Receptor. Potential Involvement in Astrocyte Plasticity” (PLoS ONE, 2012).

Legend:
[1] = tested on: GABAAR in cerebellar astrocytes (UT co-expressed); assay: Whole-cell patch-clamp of isoguvacine (Iso)-evoked depolarization/chloride current in cerebellar astrocytes co-cultured with granule neurons; type: cell-based, rat; conditions: Iso 10^−4 M; n = 78
Description: Primary Cell Culture of astrocytes and astrocyte-neurone co-culture
Primary cultures of astrocytes were prepared as previously described. Briefly, cerebellum from 7-day-old (P7) Wistar rats were collected in DMEM/Ham-F12 (2∶1, v/v) culture medium supplemented with 2 mM glutamine, 1% insulin, 5 mM HEPES, 0.4% D(+)-glucose and 1% of the antibiotic-antimycotic solution. The tissues were disaggregated mechanically with a syringue equipped with a 1-mm gauge needle, and filtered through a 100-µm pore size mesh filter (Falcon, Becton Dickinson, Grenoble, France). Dissociated cells were resuspended in culture medium supplemented with 10% heat-inactivated FBS and seeded in 150-cm^2 culture flasks (Falcon) at a density of 20×10^6 cells/flask. Cells were incubated at 37°C in a humidified atmosphere (5% CO2) and the medium was changed twice a week. When cultures were confluent, the flasks were gently shaken on an orbital shaker at […] for 2 h. Dislodged cells were discarded and a second step of purification was performed at […] for 14–16 h. Remaining adhesive cells were collected by trypsination, centrifuged (800 g, 10 min) and plated in 150-cm^2 flasks. Suspended astrocytes were harvested and seeded in 24-well poly-L-lysine-coated plates. The purity of the cultures was previously assessed by counting the percentage of astrocytes immunostained with GFAP antibodies. The enriched cultures contained >99% astrocytes.
For astrocyte-neuron co-culture, granule cell cultures were prepared from cerebella of P7 Wistar rats as described previously. Isolated cells were plated on 14-mm culture dishes coated with poly-L-lysine (5 mM) at a density of 1.5×10^6 cells/dish and incubated at 37°C in a humidified atmosphere (5% CO2) for 1 to 10 days before use. Culture medium consisted of DMEM/Ham's F12 (75%/25%) supplemented with 10% FBS, 2 mM glutamine, 5 µg/ml insulin, 25 mM KCl and 1% of antibiotic-antimycotic solution. Co-cultures are obtained by seeding granule cells (1.5×10^6 cells/ml) on cerebellar astrocytes plated in 24-well plates after 12 hours. Co-cultures are maintained in the specific medium for neuron and incubated at 37°C in an humidified atmosphere (5% CO2) for several days.
The conventional whole-cell configuration of the patch-clamp technique was used to study the GABA-gated currents in astrocytes and granule neurons, UT stably transfected CHO, CHO-UT, and CHO transiently transfected with diverse variants of UT and GABAAR subunits. After 24-h transfection, cell culture coverslips were placed in a small chamber (1.5 ml) on a stage of a right microscope DMLFSA (Leica, Heidelberg, Germany) and superfused continuously with the following bath solution containing (in mM): NaCl, 150; KCl, 2.5; HEPES, 5; CaCl2, 2; MgCl2, 1; glucose, 10 (pH 7.4 adjusted with NaOH). The patch pipettes were fabricated from 1.5 mm (outer diameter) soft glass tubes on a two-step vertical pipette puller (List-Medical, L/M-3P-A, Darmstadt, Germany). […] ATP and GTP were added to the internal solution used to fill electrode just before recording. All recordings were obtained at RT with cells voltage-clamped at −70 mV. The GABAA receptor agonist isoguvacine was prepared in the extracellular solution and was applied to cells by pneumatic pressure ejection. To prevent desenzitization, isoguvacine was more often ejected during 5 s at 2-min intervals. ATP, GTP, or guanosine 5′-O-(2-thiodiphosphate) (GDPβS) were administered through the patch pipette solution. We investigated the effect of competitive inhibition of GDP-GTP exchange by including GDPβS in the pipette solution (in addition to the normal amount of GTP). For GDPβS and the KIC, immediately following patch rupture, GABA current recordings were performed and the experiment was commenced after an equilibration period of 15 min. […]

[2] = tested on: α2β1 GABAAR co-expressed with human UT; assay: Patch-clamp of Iso-evoked current in CHO-UT expressing α2β1 GABAAR; type: cell-based; conditions: hUII 10^−13 to 10^−7 M; Iso 10^−4 M, 2 s; −60 mV
[3] = tested on: β3 GABAAR subunit in human U87 glioma; assay: Cell surface ELISA of β3 GABAAR subunit in U87 glioma; type: cell-based; conditions: hUII 10^−8 M, 30 min, 37°C, at least 3 independent experiments in triplicates
Description: The human cell line from glioblastoma U87 was obtained from the American Type Culture Collection (LGC Standards, Molsheim, France). U87 cells were maintained in DMEM containing 10% FBS and 1% sodium pyruvate. NHA-Astrocytes (Lonza, Walkersville, MD, USA) were cultivated in DMEM culture medium supplemented with 2 mM glutamine, 5 mM HEPES, 1% non essential amino acids, 1% sodium pyruvate, B27, 25 ng/ml EGF, 1% of the antibiotic-antimycotic solution and 10% FBS. All cells were incubated at 37°C in a humidified atmosphere containing 5% CO2. Culture media were replaced every three days.
Cells were plated at 50 000 cells/well in 96-well plates coated with 0.1 mg/ml poly-L-ornithine (Sigma-Aldrich). […] Cells were fixed with 4% PFA in PBS for 5 min at RT, washed in PBS, and then permeabilized in 0.05% triton X100 (only for permeabilized cells) and non specific binding were blocked with PBS containing 1% FBS for 30 min at RT. […] The cells were washed four times with PBS, a colorimetric alkaline phosphatase substrate was added (SuperSignal ELISA, Thermo scientific, Fisher) and the resulting color reaction was measured using a Viktor multilabel plate reader (PerkinElmer, Courtaboeuf, France). Background absorbance from samples transfected with non-tagged receptors or from cells without first antibodies were systematically measured. […]

Row | Compound | Cells responding to isoguvacine, astrocytes cultured with granule neurons [1] [%] | Inhibitory effect on Iso-evoked current, α2β1 [2] | β3-associated GABAAR subunit internalization, without UT319–389 [3] [%]
1 | O=C(O)C1=CCNCC1 [Iso, isoguvacine] | 48 | – | –
2 | ETPDCFWKYCV (disulfide) [hUII, human urotensin II, synthesized by solid phase methodology] | – | totally ineffective | 20
